According to patent publication US20240101544A1, “INHIBITORS OF QPCTL AND QPCT” (priority 2022, published 2024):

Experiments:
QPCTL = QPCTL (Homo sapiens (Human), UniProt Q9NXS2); assay: QPCTL Enzymatic Activity Assay (coupled-enzyme fluorescent assay, H-Gln-AMC substrate); format: biochemical; settings: recombinant truncated human QPCTL 10-12 nM, 10 μM H-Gln-AMC; read-out: QPCTL Inhibition IC50
Description: Protein expression was induced when the bacterial culture OD600 was approximately 0.7 using 1 mM IPTG and the cells incubated at 20° C. for approximately 16 hours. The QPCTL was purified using nickel column purification, digested by TEV, followed by a second nickel column purification. The protein was further purified by size-exclusion chromatography using a Superdex™ 75 column. The final protein was concentrated using ultrafiltration tubes at a molecular weight cutoff of 10 kilodaltons and stored frozen in protein buffer (25 mM Tris pH 8.3, 150 mM NaCl).
QPCTL activity was measured in a coupled-enzyme assay using the QPCTL substrate, glutamine-7-amido-4-methylcoumarin (H-Gln-AMC, Bachem), which is converted to pyroglutamyl-AMC by QPCTL. Pyroglutamyl-AMC is then converted to the fluorescent molecule, AMC, by incubation with the human enzyme pyroglutamyl peptidase-1. […] Final concentrations of DMSO and test compounds were 2% and 30-100 μM, respectively. Following the incubation, H-Gln-AMC substrate was diluted in assay buffer and added to each well for a final concentration of 10 μM. The reaction was incubated for 60 min at 37° C., before stopping it by boiling at 100° C. for 5 minutes and cooling the plate at 4° C. for 3 minutes. […] Following incubation, the fluorescence was measured with a plate reader using excitation at 380 nm and emission at 460 nm. […] Concentration-response-curves and IC50 values (Table 17) were generated using curve fit software.

QPCT (rhQPCT) = QPCT (rhQPCT) (Homo sapiens (Human), UniProt Q16769); assay: QPCT Enzymatic Activity Assay (coupled-enzyme fluorescent assay, H-Gln-AMC substrate); format: biochemical; settings: rhQPCT 10-12 nM, 10 μM H-Gln-AMC; read-out: QPCT Inhibition IC50
Description: QPCT activity was measured in a coupled-enzyme assay using the QPCT substrate, glutamine-7-amido-4-methylcoumarin (H-Gln-AMC, Bachem), which is converted to pyroglutamyl-AMC by QPCT. Pyroglutamyl-AMC is then converted to the fluorescent molecule, AMC, by incubation with the human enzyme pyroglutamyl peptidase-1 (PGPEP-1). […] Following the incubation, H-Gln-AMC substrate was diluted in assay buffer and added to each well for a final concentration of 10 μM. The reaction was incubated for 60 min at 37° C., before stopping it by boiling at 100° C. for 5 minutes and cooling the plate at 4° C. for 3 minutes. […] Following incubation, the fluorescence was measured with a plate reader using excitation at 380 nm and emission at 460 nm. […] Concentration-response-curves and IC50 values (Table 17) were generated using Collaborative Drug Discovery software.

Chain of QPCTL (Q9NXS2 53-382): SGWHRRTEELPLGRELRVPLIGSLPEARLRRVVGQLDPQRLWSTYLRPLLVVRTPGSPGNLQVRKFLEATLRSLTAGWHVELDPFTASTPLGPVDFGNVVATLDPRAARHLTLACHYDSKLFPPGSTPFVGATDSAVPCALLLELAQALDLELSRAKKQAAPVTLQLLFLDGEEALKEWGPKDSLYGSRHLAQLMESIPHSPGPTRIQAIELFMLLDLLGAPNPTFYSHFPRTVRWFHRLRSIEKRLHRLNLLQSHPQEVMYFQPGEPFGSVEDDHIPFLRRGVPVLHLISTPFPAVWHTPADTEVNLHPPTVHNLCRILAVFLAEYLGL
Chain of QPCT (rhQPCT) (Q16769 29-361): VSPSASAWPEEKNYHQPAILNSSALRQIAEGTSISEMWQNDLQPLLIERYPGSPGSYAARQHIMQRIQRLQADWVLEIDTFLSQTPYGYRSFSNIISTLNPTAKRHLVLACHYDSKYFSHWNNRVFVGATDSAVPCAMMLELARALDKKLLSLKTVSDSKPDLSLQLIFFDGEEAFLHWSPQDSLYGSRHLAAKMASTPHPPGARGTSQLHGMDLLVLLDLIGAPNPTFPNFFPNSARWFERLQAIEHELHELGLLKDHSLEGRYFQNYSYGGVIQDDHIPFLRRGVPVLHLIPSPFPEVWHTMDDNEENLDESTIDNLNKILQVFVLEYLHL

For `Cn1cnnc1N1CCN(c2c(C#N)ccc(F)c2-c2ccc(F)nc2)CC1` [Example 127, 4-fluoro-3-(6-fluoropyridin-3-yl)-2-(4-(4-methyl-4H-1,2,4-triazol-3-yl)piperazin-1-yl)benzonitrile], which IC50 (QPCTL) is on record?
Its IC50 is < 0.1 µM.

And the IC50 (QPCT (rhQPCT))?
Its IC50 is < 0.1 µM.

`Cn1cnnc1C1CCN(c2c(C#N)cccc2-c2ccc(O)nc2)CC1` [Example 116, 3-(6-hydroxypyridin-3-yl)-2-(4-(4-methyl-4H-1,2,4-triazol-3-yl)piperidin-1-yl)benzonitrile] was tested. Which IC50 (QPCTL) did it give?
The IC50 was < 0.1 µM.

What about the IC50 (QPCT (rhQPCT)) of the same compound?
Its IC50 is < 0.1 µM.

Which IC50 (QPCTL) does the source give for `Cn1cnnc1N1CCN(c2c(-c3ccc(F)nc3)ccc(C3CC3)c2C#N)CC1` [Example 129, 6-cyclopropyl-3-(6-fluoropyridin-3-yl)-2-(4-(4-methyl-4H-1,2,4-triazol-3-yl)piperazin-1-yl)benzonitrile] here?
The IC50 was < 0.1 µM.

And the IC50 (QPCT (rhQPCT))?
Its IC50 is < 0.1 µM.

How did the IC50 (QPCTL) turn out when `Cn1cnnc1C1CCN(c2c(C#N)cccc2-c2cccc(B(O)O)c2)CC1` [Example 112, (3′-cyano-2′-(4-(4-methyl-4H-1,2,4-triazol-3-yl)piperidin-1-yl)-[1,1′-biphenyl]-3-yl)boronic acid] was run?
Its IC50 is < 0.1 µM.

And the IC50 (QPCT (rhQPCT))?
The IC50 was < 0.1 µM.

Which IC50 (QPCTL) does the source give for `Cn1cnnc1C1CCN(c2c(-c3ccc(F)nc3)ccc(OC3CCOC3)c2C#N)CC1` (single isomer, unassigned) [Example 89, 3-(6-fluoropyridin-3-yl)-2-(4-(4-methyl-4H-1,2,4-triazol-3-yl)piperidin-1-yl)-6-((tetrahydrofuran-3-yl)oxy)benzonitrile] here?
Its IC50 is < 0.1 µM.

And the IC50 (QPCT (rhQPCT))?
The IC50 was < 0.1 µM.

What does the source list for `Cn1cnnc1C1CCN(c2c(C#N)cccc2-c2ccc(C(F)(F)F)nc2)CC1` [Example 29, 2-[4-(4-methyl-4H-1,2,4-triazol-3-yl)piperidin-1-yl]-3-[6-(trifluoromethyl)pyridin-3-yl]benzonitrile]?
IC50 (QPCTL): 0.1 to 1 µM; IC50 (QPCT (rhQPCT)): 0.1 to 1 µM

For `COc1ccncc1-c1cccc(C#N)c1N1CCC(c2cncs2)CC1` [Example 14, 3-(4-methoxypyridin-3-yl)-2-[4-(1,3-thiazol-5-yl)piperidin-1-yl]benzonitrile], which IC50 (QPCTL) is on record?
The IC50 was 0.1 to 1 µM.

What about the IC50 (QPCT (rhQPCT)) of the same compound?
The IC50 was 0.1 to 1 µM.

How did the IC50 (QPCTL) turn out when `Cn1cnnc1C1CCN(c2c(C#N)cccc2-c2ccc3[nH]nc(O)c3c2)CC1` [Example 113, 3-(3-hydroxy-1H-indazol-5-yl)-2-(4-(4-methyl-4H-1,2,4-triazol-3-yl)piperidin-1-yl)benzonitrile] was run?
Its IC50 is < 0.1 µM.

What about the IC50 (QPCT (rhQPCT)) of the same compound?
Its IC50 is < 0.1 µM.

Which IC50 (QPCTL) does the source give for `Cn1ccc(-c2cc(F)c(-c3ccc(F)nc3)c(N3CCC(c4nncn4C)CC3)c2C#N)n1` [Example 131, 4-fluoro-3-(6-fluoropyridin-3-yl)-6-(1-methyl-1H-pyrazol-3-yl)-2-(4-(4-methyl-4H-1,2,4-triazol-3-yl)piperidin-1-yl)benzonitrile] here?
Its IC50 is 1 to 10 µM.

What about the IC50 (QPCT (rhQPCT)) of the same compound?
Its IC50 is 0.1 to 1 µM.

What does the source list for `Cc1cc(-c2ccc(-c3cn[nH]c3)c(C#N)c2N2CCC(c3nncn3C)CC2)cnn1` [Example 74, 2-(4-(4-methyl-4H-1,2,4-triazol-3-yl)piperidin-1-yl)-3-(6-methylpyridazin-4-yl)-6-(1H-pyrazol-4-yl)benzonitrile]?
IC50 (QPCTL): < 0.1 µM; IC50 (QPCT (rhQPCT)): < 0.1 µM

What does the source list for `Cn1ccc(-c2cnc(-c3ccc(F)nc3)c(N3CCC(c4nncn4C)CC3)c2C#N)n1` [Example 138, 6′-fluoro-5-(1-methyl-1H-pyrazol-3-yl)-3-(4-(4-methyl-4H-1,2,4-triazol-3-yl)piperidin-1-yl)-[2,3′-bipyridine]-4-carbonitrile]?
IC50 (QPCTL): > 10 µM; IC50 (QPCT (rhQPCT)): 1 to 10 µM

How did the IC50 (QPCTL) turn out when `Cn1cnnc1C1[C@H]2CN(c3c(C#N)cccc3-c3ccc(F)nc3)C[C@@H]12` (stereo partly drawn) [Example 75, 3-(6-fluoropyridin-3-yl)-2-((1R,5S)-6-(4-methyl-4H-1,2,4-triazol-3-yl)-3-azabicyclo[3.1.0]hexan-3-yl)benzonitrile] was run?
The IC50 was 0.1 to 1 µM.

What about the IC50 (QPCT (rhQPCT)) of the same compound?
The IC50 was 0.1 to 1 µM.

How did the IC50 (QPCTL) turn out when `Cn1cnnc1C1CCN(c2c(C#N)cccc2-c2ccc(OS(=O)(=O)F)nc2)CC1` [Example 119, 5-(3-cyano-2-(4-(4-methyl-4H-1,2,4-triazol-3-yl)piperidin-1-yl)phenyl)pyridin-2-yl sulfurofluoridate] was run?
The IC50 was < 0.1 µM.

What about the IC50 (QPCT (rhQPCT)) of the same compound?
Its IC50 is 0.1 to 1 µM.

`Cc1cc(-c2ccc(-c3ccn(C)n3)c(C#N)c2N2CCC(c3nncn3C)CC2)cnn1` [Example 61, 6-(1-methyl-1H-pyrazol-3-yl)-2-(4-(4-methyl-4H-1,2,4-triazol-3-yl)piperidin-1-yl)-3-(6-methylpyridazin-4-yl)benzonitrile] was tested. Which IC50 (QPCTL) did it give?
The IC50 was < 0.1 µM.

What about the IC50 (QPCT (rhQPCT)) of the same compound?
Its IC50 is < 0.1 µM.

For `N#Cc1cccc(-c2ccc(F)nc2)c1N1CCC(c2nncs2)CC1` [Example 72, 2-(4-(1,3,4-thiadiazol-2-yl)piperidin-1-yl)-3-(6-fluoropyridin-3-yl)benzonitrile], which IC50 (QPCTL) is on record?
Its IC50 is 0.1 to 1 µM.

And the IC50 (QPCT (rhQPCT))?
Its IC50 is 0.1 to 1 µM.

How did the IC50 (QPCTL) turn out when `Cn1cnnc1C1CCN(c2c(C#N)cccc2-c2cncc3c2OCCN3CCO)CC1` [Example 23, 3-[4-(2-hydroxyethyl)-2H,3H,4H-pyrido[4,3-b][1,4]oxazin-8-yl]-2-[4-(4-methyl-4H-1,2,4-triazol-3-yl)piperidin-1-yl]benzonitrile] was run?
The IC50 was 0.1 to 1 µM.

What about the IC50 (QPCT (rhQPCT)) of the same compound?
The IC50 was 0.1 to 1 µM.

With `Cn1cnnc1C1CCN(c2c(C#N)cccc2-c2ccc(F)cc2F)CC1` [Example 103, 2′,4′-difluoro-2-(4-(4-methyl-4H-1,2,4-triazol-3-yl)piperidin-1-yl)-[1,1′-biphenyl]-3-carbonitrile] as the compound, how does the IC50 (QPCTL) read?
Its IC50 is 0.1 to 1 µM.

What about the IC50 (QPCT (rhQPCT)) of the same compound?
The IC50 was < 0.1 µM.

Which IC50 (QPCTL) does the source give for `Cn1cnnc1C1CCN(c2c(C#N)cccc2-c2cncc3c2OCCN3)CC1` [Example 20, 2-[4-(4-methyl-4H-1,2,4-triazol-3-yl)piperidin-1-yl]-3-{2H,3H,4H-pyrido[4,3-b][1,4]oxazin-8-yl}benzonitrile] here?
The IC50 was 0.1 to 1 µM.

What about the IC50 (QPCT (rhQPCT)) of the same compound?
Its IC50 is < 0.1 µM.

With `Cn1cnnc1C1CCN(c2c(C#N)cccc2-c2ccc3c(c2)B(O)OC3)CC1` [Example 121, 3-(1-hydroxy-1,3-dihydrobenzo[c][1,2]oxaborol-6-yl)-2-(4-(4-methyl-4H-1,2,4-triazol-3-yl)piperidin-1-yl)benzonitrile] as the compound, how does the IC50 (QPCTL) read?
The IC50 was 0.1 to 1 µM.

And the IC50 (QPCT (rhQPCT))?
The IC50 was 0.1 to 1 µM.

Which IC50 (QPCTL) does the source give for `Cn1cnnc1C1CCN(c2c(C#N)cccc2-c2ccc(B(O)O)cc2)CC1` [Example 111, (3′-cyano-2′-(4-(4-methyl-4H-1,2,4-triazol-3-yl)piperidin-1-yl)-[1,1′-biphenyl]-4-yl)boronic acid] here?
The IC50 was 0.1 to 1 µM.

What about the IC50 (QPCT (rhQPCT)) of the same compound?
The IC50 was < 0.1 µM.

Which IC50 (QPCTL) does the source give for `COc1ccncc1-c1cccc(C#N)c1N1CCC(c2cncn2C)CC1` [Example 31, 3-(4-methoxypyridin-3-yl)-2-[4-(1-methyl-1H-imidazol-5-yl)piperidin-1-yl]benzonitrile] here?
The IC50 was < 0.1 µM.

What about the IC50 (QPCT (rhQPCT)) of the same compound?
Its IC50 is < 0.1 µM.

How did the IC50 (QPCTL) turn out when `[2H]C([2H])([2H])Oc1ccc(-c2ccc(F)nc2)c(N2CCC(c3nncn3C)CC2)c1C#N` [Example 57, 3-(6-fluoropyridin-3-yl)-6-(methoxy-d3)-2-(4-(4-methyl-4H-1,2,4-triazol-3-yl)piperidin-1-yl)benzonitrile] was run?
The IC50 was < 0.1 µM.

And the IC50 (QPCT (rhQPCT))?
The IC50 was < 0.1 µM.

Which results are given for `Cn1cc(-c2cnc(-c3ccc(F)nc3)c(N3CCC(c4nncn4C)CC3)c2C#N)cn1` [Example 139, 6′-fluoro-5-(1-methyl-1H-pyrazol-4-yl)-3-(4-(4-methyl-4H-1,2,4-triazol-3-yl)piperidin-1-yl)-[2,3′-bipyridine]-4-carbonitrile]?
IC50 (QPCTL): > 10 µM; IC50 (QPCT (rhQPCT)): 0.1 to 1 µM

With `Cn1cnnc1C1CCN(c2c(C#N)cccc2-c2cnccn2)CC1` [Example 5, 2-[4-(4-methyl-4H-1,2,4-triazol-3-yl)piperidin-1-yl]-3-(pyrazin-2-yl)benzonitrile] as the compound, how does the IC50 (QPCTL) read?
Its IC50 is 0.1 to 1 µM.

What about the IC50 (QPCT (rhQPCT)) of the same compound?
Its IC50 is 0.1 to 1 µM.

What does the source list for `Cn1cnnc1C1CCN(c2c(C#N)cc(F)cc2-c2ccc(F)nc2)CC1` [Example 130, 5-fluoro-3-(6-fluoropyridin-3-yl)-2-(4-(4-methyl-4H-1,2,4-triazol-3-yl)piperidin-1-yl)benzonitrile]?
IC50 (QPCTL): 1 to 10 µM; IC50 (QPCT (rhQPCT)): 1 to 10 µM

With `N#Cc1cccc(-c2ccc(F)nc2)c1N1CCC(c2nnc[nH]2)CC1` [Example 49, 2-(4-(4H-1,2,4-triazol-3-yl)piperidin-1-yl)-3-(6-fluoropyridin-3-yl)benzonitrile] as the compound, how does the IC50 (QPCTL) read?
The IC50 was 0.1 to 1 µM.

And the IC50 (QPCT (rhQPCT))?
Its IC50 is 0.1 to 1 µM.

With `Cn1cnnc1C1CCN(c2c(C#N)cccc2-c2cccc(C=O)c2)CC1` [Example 110, 3′-formyl-2-(4-(4-methyl-4H-1,2,4-triazol-3-yl)piperidin-1-yl)-[1,1′-biphenyl]-3-carbonitrile] as the compound, how does the IC50 (QPCTL) read?
Its IC50 is 0.1 to 1 µM.

What about the IC50 (QPCT (rhQPCT)) of the same compound?
The IC50 was < 0.1 µM.
